Laboratory results published in paper PMC9243000 (Cell Discovery, 2022).
Where two headings read alike, the source gives them in different places. Positions of bridges follow the written chain, without caps; N, C: chain ends. Residues, ends and D or L forms follow the SMILES beside them. Chains are numbered I, II in the order given. No end group written: not given here.

Columns and labels:
SARS-CoV-2 (HKU001a) = conditions: for 50% inhibitory concentration IC50: HKU001a, 18 h; for antiviral activity in the low salt condition: low salt (30 mM, PBS/5), plaque reduction assay
[1] = system: fusion between 293T-Spike and Calu-3 cells; assay type: cell-based
[2] = system: endosomal acidification in VeroE6 cells; assay: Endosomal acidification assay; assay type: cell-based; conditions: 4H30 25 μg/mL, bafilomycin A1 50 nM, pH-sensitive dye
Procedure: Endosomal acidification was detected with a pH-sensitive dye (pHrodo green dextran, Invitrogen, Cat^# P35365) according to the manufacturer’s instructions as previously described but with slight modification. First, VeroE6 cells were treated with DMEM, 4H30 (25.0 μg/mL), or bafilomycin A1 (50.0 nM) at 4 °C for 15 min. Second, VeroE6 cells were added with 100 μg/mL of pH-sensitive dye and DAPI and then incubated at 4 °C for 15 min. Before taking images, cells were further incubated at 37 °C for 15 min and then cells were washed twice with PBS. Finally, PBS was added to cells and images were taken immediately with a confocal microscope (Carl Zeiss LSM 800, Germany).
Supplementary Fig. S7. 4H30 could inhibit endosomal acidification in VeroE6 cells. VeroE6 cells were treated with pH-sensitive dye (green in low pH endosomes) and the indicated inhibitor 4H30 (25 μg/mL), bafilomycin A1 (BA1, 50 nM) or DMEM. Nuclei were stained as blue. Cell only without treatment was the negative control (Neg). Representative live-cell images were taken by confocal microscope. Experiments were repeated with two independent biological samples. […]

[3] = system: spike-ACE2-mediated cell fusion in 293T cells; assay type: cell-based; conditions: 4H30 40 μM, bafilomycin A1 50 nM, remdesivir 80 μM; 6 h post coculture
SARS-CoV-2 [4] = conditions: cited from earlier work
[5] = system: SARS-CoV-2 (B.1.617.2, Delta); assay: Post-exposure antiviral assay in hamsters, Delta; assay type: in vivo; conditions: for syncytia formation in hamster lungs: Delta, compared with mock-treated hamsters; for inhibition of viral replication in hamster lungs (PFU/lung) / lung inflammation: in vivo, hamster
[6] = ELISA binding to chondroitin sulfate; conditions: CS 300, 75 ng coated on ELISA plate; detection by anti-HBD2; compared with BSA; n = 4
[7] = Cytotoxicity MTT assay, VeroE6; assay type: cell-based; conditions: VeroE6 cells, 24 h at 37 °C, DMEM with 1% FBS, n = 3, read-out: 50% toxicity concentration (TC50)
Procedure: (§1) Cytotoxicity of peptides was determined by the detection of 50% cytotoxic concentration (CC50) using a tetrazolium-based colorimetric MTT assay. Briefly, cells were seeded in a 96-well cell culture plate at an initial density of 4 × 10^4 cells per well in DMEM supplemented with 10% FBS and incubated overnight. Cell culture media were removed and then DMEM supplemented with various concentrations of peptides and 1% FBS were added to each well. After 24 h incubation at 37 °C, MTT solution (5 mg/mL, 10 μL per well) was added to each well for incubation at 37 °C for 4 h. Then, 100 μL of 10% SDS in 0.01 M HCl was added to each well. After further incubation at room temperature with shaking overnight, the plates were read at OD570 using VictorTM X3 Multilabel Reader (PerkinElmer, USA). Cell culture wells without peptides were used as the experiment control and the medium only served as a blank control.

MERS-CoV = conditions: 18 h
SARS-CoV-2 [8] = assay: Viral RNA copies in VeroE6 cell lysate after pretreatment (RT-qPCR); assay type: cell-based; conditions: virus pretreated by 4H30 (25 μg/mL), DMEM-treated virus 50-fold, n = 4
[9] = ELISA binding to heparan sulfate; conditions: HS 300, 75 ng coated on ELISA plate; detection by anti-HBD2; compared with BSA; n = 4
[10] = Cytotoxicity MTT assay, Calu-3; assay type: cell-based; conditions: human, Calu-3 cells, 24 h at 37 °C, DMEM with 1% FBS, n = 3, read-out: 50% toxicity concentration (TC50)
Procedure: as §1

SARS-CoV-2 [11] = assay: Viral release assay; assay type: cell-based
SARS-CoV-2 [12] = assay: Plaque assay after 10,000-fold dilution of treated virus; assay type: cell-based
[13] = intranasal, three doses of 0.5 mg/kg within two days; 4 days post-inoculation
spike-ACE2 binding = spike-ACE2 binding (Severe acute respiratory syndrome coronavirus 2, UniProt P0DTC2); assay: ELISA of spike binding to ACE2; conditions: ACE2 (150 ng) coated on ELISA plate; n = 6
SARS-CoV-2 [14] = assay: Viral attachment assay at 4 °C (RT-qPCR); assay type: cell-based
SARS-CoV-2 B.1.1.63 = conditions: B.1.1.63, 18 h
[15] = mice; intranasal, three doses of 0.5 mg/kg within two days; compared with the PBS group; three mice in each group
SARS-CoV-2 (B.1.1.63) [16] = assay: Pre-exposure antiviral assay in hamsters; assay type: in vivo; conditions: compared with mock-treated hamsters
SARS-CoV-2 (B.1.1.63) [17] = assay: Post-exposure antiviral assay in hamsters, B.1.1.63; conditions: hamster, in vivo

Question: With CC[C@H](C)[C@H](NC(=O)[C@H](C)NC(=O)CN)C(=O)N[C@@H](CS)C(=O)N[C@@H](Cc1c[nH]cn1)C(=O)N1CCC[C@H]1C(=O)N[C@H](C(=O)N[C@@H](Cc1ccccc1)C(=O)N[C@@H](CS)C(=O)N1CCC[C@H]1C(=O)N[C@@H](CCCNC(=N)N)C(=O)N[C@@H](CCCNC(=N)N)C(=O)N[C@@H](Cc1ccc(O)cc1)C(=O)N[C@@H](CCCCN)C(=O)N[C@@H](CCC(N)=O)C(=O)N[C@H](C(=O)NCC(=O)N[C@H](C(=O)N[C@@H](CS)C(=O)NCC(=O)N[C@@H](CC(C)C)C(=O)N1CCC[C@H]1C(=O)NCC(=O)N[C@H](C(=O)N[C@@H](CCCCN)C(=O)N[C@@H](CS)C(=O)N[C@@H](CS)C(=O)N[C@@H](CCCCN)C(=O)N[C@@H](CCCCN)C(=O)N1CCC[C@H]1C(=O)O)[C@@H](C)O)[C@@H](C)O)[C@@H](C)CC)C(C)C [H30] (H-GAICHPVFCPRRYKQIGTCGLPGTKCCKKP-OH; N-terminus and C-terminus assumed) as the compound, how does the “50% inhibitory concentration IC50” value (SARS-CoV-2 (HKU001a)) read?
Answer: Its value is over 25 µg/mL.

Question: And the “antiviral activity in the low salt condition” value (SARS-CoV-2 (HKU001a))?
Answer: Its value is “more effective in the low salt condition”.

Question: With CO/C1=C\C(C)=C\[C@@H](C)[C@@H](O)[C@@H](C)C/C(C)=C/C=C/[C@H](OC)[C@@H]([C@@H](C)[C@@H](O)[C@H](C)[C@@]2(O)C[C@@H](O)[C@H](C)[C@@H](C(C)C)O2)OC1=O [bafilomycin A1] as the compound, how does the “inhibition of cell-cell fusion, 293T-Spike + Calu-3” value (from here on “inhibition of cell-cell fusion”) [1] read?
Answer: Its value is “could not inhibit”.

Question: And the “cell fusion size, 293T-Spike + Calu-3” value ([1]; 4H30 125 μg/mL, BA1 50 nM, 6-8 h post-coculture, non-fusion cell size ~10 μm)?
Answer: Its value is over 40 μm.

Question: What about the “inhibition of endosomal acidification in live cells” value [2] of the same compound?
Answer: Its value is “could inhibit”.

Question: And the “inhibition of spike-ACE2-mediated cell fusion, 293T-Spike + 293T-ACE2” value (“inhibition … 293T-Spike + 293T-ACE2” for short) [3]?
Answer: The value was “inhibition”.

Question: For CN(C)C(=O)COC(=O)Cc1ccc(OC(=O)c2ccc(NC(=N)N)cc2)cc1 [camostat], which “inhibition of cell-cell fusion” value [1] is on record?
Answer: The value was “could show the inhibition”.

Question: What about the “inhibition of SARS-CoV-2 in hamsters by camostat alone” value (SARS-CoV-2 [4]) of the same compound?
Answer: Its value is “not significantly inhibited”.

Question: Which “syncytia formation in hamster lungs” value [5] does the source give for CCC(CC)COC(=O)[C@H](C)N[P@](=O)(OC[C@H]1O[C@@](C#N)(c2ccc3c(N)ncnn23)[C@H](O)[C@@H]1O)Oc1ccccc1 [remdesivir, reference compound] here?
Answer: Its value is “syncytia could be easily observed”.

Question: And the “inhibition of viral replication in hamster lungs (PFU/lung)” value [5]?
Answer: The value was 33 fold.

Question: What about the lung inflammation [5] of the same compound?
Answer: The lung inflammation was “could reduce lung inflammation”.

Question: What about the “inhibition … 293T-Spike + 293T-ACE2” value [3] of the same compound?
Answer: Its value is “without inhibition”.

Question: For “I: GAICHPVFCPRRYKQIGTCGLPGTKCCKKPKK / II: GAICHPVFCPRRYKQIGTCGLPGTKCCKKPK / III: GAICHPVFCPRRYKQIGTCGLPGTKCCKKP / IV: GAICHPVFCPRRYKQIGTCGLPGTKCCKKP (amide I:31-IV:C, I:32-II:C, II:31-III:C; cysteines drawn unpaired) [4H30]”, which “binding to chondroitin sulfate (CS)” value [6] is on record?
Answer: The value was “effectively bind”.

Question: What about the CC50 at 24 h [7] of the same compound?
Answer: Its CC50 at 24 h is over 400 µg/mL.

Question: What about the IC50 (MERS-CoV) of the same compound?
Answer: Its IC50 is 1.01 µg/mL.

Question: And the “inhibition of cell-cell fusion” value ([1]; 4H30 125 μg/mL, bafilomycin A1 50 nM, camostat 100 μg/mL, 6-8 h post-coculture)?
Answer: Its value is “could not inhibit”.

Question: And the “syncytia formation in hamster lungs” value [5]?
Answer: The value was “could reduce the syncytia formation”.

Question: And the “inhibition of viral replication in hamster lungs (PFU/lung)” value [5]?
Answer: Its value is 9 fold.

Question: What about the lung inflammation [5] of the same compound?
Answer: Its lung inflammation is “could reduce lung inflammation”.

Question: What about the “viral RNA increase at 6 hpi compared with viral load at 1 hpi” value (SARS-CoV-2 [8]) of the same compound?
Answer: Its value is “less than threefold”.

Question: And the “binding to heparan sulfate (HS)” value [9]?
Answer: The value was “effectively bind”.

Question: And the CC50 at 24 h [10]?
Answer: Its CC50 at 24 h is over 400 µg/mL.

Question: What about the “inhibition of viral release” value (SARS-CoV-2 [11]) of the same compound?
Answer: Its value is “significantly inhibit viral release”.

Question: What about the “inhibition of infection after dilution of treated virus” value (SARS-CoV-2 [12]) of the same compound?
Answer: Its value is “significantly inhibit”.

Question: And the “pathological and body weight changes in hamsters” value [13]?
Answer: Its value is “did not cause significant pathological and body weight changes”.

Question: What about the “effect on binding between the spike and ACE2” value (spike-ACE2 binding) of the same compound?
Answer: Its value is “did not directly affect the binding”.

Question: What about the “SARS-CoV-2 attachment to A549 (ACE2–) and Calu-3 (ACE2+) cells” value (SARS-CoV-2 [14]; cells treated with 12.5 μg/mL, attachment at 4 °C, compared with BSA- or DMEM-treated cells) of the same compound?
Answer: Its value is “significantly increased”.

Question: What about the “SARS-CoV-2 attachment to VeroE6 cells” value (SARS-CoV-2 [14]; virus pre-mixed with 25 μg/mL for 1 hour, attachment at 4 °C for 1 hour, n = 4) of the same compound?
Answer: The value was “increase”.

Question: And the “inhibition of endosomal acidification in live cells” value [2]?
Answer: The value was “could inhibit”.

Question: What about the “inhibition … 293T-Spike + 293T-ACE2” value [3] of the same compound?
Answer: Its value is “could inhibit the fusion”.

Question: What about the IC50 (SARS-CoV-2 B.1.1.63) of the same compound?
Answer: Its IC50 is 0.48 µg/mL.

Question: And the “lung histopathology and body weight changes for 40 days” value [15]?
Answer: Its value is “no significant histopathological and consistent body weight change”.

Question: And the “syncytia in bronchial epithelium” value (SARS-CoV-2 (B.1.1.63) [16])?
Answer: The value was “reduced”.

Question: And the “inhibition of SARS-CoV-2 replication in lungs, post-exposure” value (SARS-CoV-2 (B.1.1.63) [17])?
Answer: Its value is “significantly inhibit”.

Question: And the “50% inhibitory concentration IC50” value (SARS-CoV-2 (HKU001a))?
Answer: The value was 0.59 µg/mL.

Question: And the “antiviral activity in the low salt condition” value (SARS-CoV-2 (HKU001a))?
Answer: The value was “significantly inhibited”.
